Values quoted from earlier work in patent publication US20070196528A1, “Cosmetic composition based on caper flower bud extract” (GATTEFOSSE S.A.S., priority 2004, published 2007).

System: oedemas in rats
Settings: Pharmazie 43 (1988); cited from earlier work

## CC(C)=CCC/C(C)=C/CC/C(C)=C/CC/C(C)=C/CC/C(C)=C\CC/C(C)=C\CC/C(C)=C\CC/C(C)=C\CC/C(C)=C\CC/C(C)=C\CC/C(C)=C\CC/C(C)=C\CC/C(C)=C\CO [Cappaprenol-13]
  Anti-inflammatory activity: providing this anti-inflammatory activity

## CC(C)=CCC/C(C)=C/CC/C(C)=C/CC/C(C)=C/CC/C(C)=C/CC/C(C)=C/CC/C(C)=C/CC/C(C)=C/CC/C(C)=C/CC/C(C)=C/CC/C(C)=C/CC/C(C)=C/CC/C(C)=C/CC/C(C)=C/CO [Cappaprenol-14]
  Anti-inflammatory activity: providing this anti-inflammatory activity

## Cappaprenol-12
  Anti-inflammatory activity: providing this anti-inflammatory activity
